{"source": "patent US8716530B2", "about": "“Facially amphiphilic polyaryl and polyarylalkynyl polymers and oligomers and uses thereof” (The Trustess of the University of Pennsylvania, priority 2004, dated 2014)", "key": {"[1]": {"system": "Candida albicans", "test": "MIC100, clinical isolates of hospital-acquired pathogens (Table 7)", "format": "cell-based", "details": "one table line per isolate, RPMI synthetic medium, in µg/mL"}, "[2]": {"system": "S. aureus and methicillin-resistant S. aureus (MRSA)", "test": "MIC100, modified NCCLS microbroth dilution (Table 6)", "format": "cell-based", "details": "Staphylococcus aureus"}, "[3]": {"system": "E. coli", "test": "MIC100, modified NCCLS microbroth dilution (Table 6)", "format": "cell-based", "details": "Escherichia coli"}, "[4]": {"system": "Y. pestis", "test": "microbe, parasite or virus in culture", "format": "cell-based", "details": "Yersinia pestis, 30 h, read-out: MIC100 Y. pestis (30 hr)"}, "[5]": {"system": "B. anthracis", "test": "microbe, parasite or virus in culture", "format": "cell-based, Bacillus anthracis"}, "[6]": {"system": "S. aureus", "format": "cell-based", "details": "S. aureus passaged at 0.5x MIC100; by passage 16 (17 consecutive passages)"}, "[7]": {"system": "E. coli", "test": "Modified NCCLS microbroth dilution MIC assay", "format": "cell-based", "details": "Escherichia coli; for MIC: 18 to 20 hours incubation, OD 600 nm"}, "[8]": {"system": "B. subtilis", "test": "Modified NCCLS microbroth dilution MIC assay", "details": "Bacillus subtilis; for MIC: read-out: B. subtilis MIC"}, "[9]": {"system": "human erythrocytes", "test": "Hemolysis of human erythrocytes (HC50)", "details": "for Hemolysis HC50: one hour incubation, 50% hemoglobin release, Table 1"}, "[10]": {"system": "Trichoderma virens", "test": "Antifungal MIC/MFC, NCCLS M38-A", "format": "cell-based", "description": "(§1) MIC endpoints were determined for A. fumigatus, P. funiculosum, C. globosum and T. virens according to current NCCLS guidelines defined for testing A. fumigatus (NCCLS M38-A, 2002). […] Amphotericin B was included in the screen with C. albicans as a positive control. All MIC testing was done in 96 well microtiter panels using RPMI 1640 (with glutamine and without bicarbonate) broth as a growth media. Incubation was at 35° C., and growth was read at 48, 72, (and for some slow growing fungal species, 96 hours). […] MFC (minimal fungicidal concentrations) endpoints were calculated using a modified methodology based on the NCCLS defined methodology for measuring minimal bactericidal concentrations (MBC). Experimentation to calculate MFCs was undertaken only for those organisms for which an MIC endpoint was satisfactorily calculated. MFCs are defined as the concentration required to reduce the number of viable organisms by at least 90%."}, "[11]": {"system": "Penicillium funiculosum", "test": "Antifungal MIC/MFC, NCCLS M38-A", "format": "cell-based", "description": "as §1"}, "[12]": {"system": "Aspergillus fumigatus", "test": "Antifungal MIC/MFC, NCCLS M38-A", "format": "cell-based", "description": "as §1"}, "[13]": {"system": "Chaetomium globosum", "test": "Antifungal MIC/MFC, NCCLS M38-A", "format": "cell-based", "description": "as §1"}, "[14]": {"system": "Haemophilus influenzae", "test": "MIC100, clinical isolates of hospital-acquired pathogens (Table 7)", "format": "cell-based", "details": "Mueller Hinton+NAD+yeast extract+hematin"}, "[15]": {"system": "Streptococcus pyogenes", "test": "MIC100, clinical isolates of hospital-acquired pathogens (Table 7)", "format": "cell-based", "details": "Mueller Hinton+2-5% lysed horse blood, in µg/mL"}, "[16]": {"system": "Enterococcus faecalis", "test": "MIC100, clinical isolates of hospital-acquired pathogens (Table 7)", "format": "cell-based", "details": "control strain ATCC 29212"}, "[17]": {"system": "Streptococcus pneumoniae", "test": "MIC100, clinical isolates of hospital-acquired pathogens (Table 7)", "format": "cell-based", "details": "for mic (MIC100) Streptococcus pneumoniae: clinical isolates, no phenotype given; for mic (MIC100) Streptococcus pneumoniae / mic (MIC100) Streptococcus pneumoniae PEN-R: Mueller Hinton+2-5% lysed horse blood, in µg/mL; for mic (MIC100) Streptococcus pneumoniae ATCC 49619: control strain ATCC 49619; for mic (MIC100) Streptococcus pneumoniae PEN-R: penicillin-resistant clinical isolates"}, "[18]": {"details": "concentration reducing viable organisms by at least 90%"}}, "note": "Several values for one entry are separate records, joined by “and”; a condition that tells them apart may be missing. Identical values can stand only once. Like-named read-outs stand apart in the source and are kept apart here."}
{"smiles": "C[C@@H]1[C@H](O)[C@@H](C)/C=C/C=C/C=C/C=C/C=C/C=C/C=C/[C@H](O[C@@H]2O[C@H](C)[C@@H](O)[C@H](N)[C@@H]2O)C[C@@H]2O[C@](O)(C[C@@H](O)C[C@@H](O)[C@H](O)CC[C@@H](O)C[C@@H](O)CC(=O)O[C@H]1C)C[C@H](O)[C@H]2C(=O)O", "note": "[AMP B, amphotericin B]", "values": [{"measurement": "mic (MIC100) Candida albicans", "setting": "[1]", "value": 2}]}
{"smiles": "NCC[C@H](O)C(=O)N[C@@H]1C[C@H](N)[C@@H](O[C@H]2O[C@H](CN)[C@@H](O)[C@H](O)[C@H]2O)[C@H](O)[C@H]1O[C@H]1O[C@H](CO)[C@@H](O)[C@H](N)[C@H]1O", "note": "[Amikacin, amikacin, reference compound]", "values": [{"measurement": "MIC", "setting": "[2]; ATCC 29213 / MRSA, strain ATCC29213 (Table 6), read-out: MIC100 S. aureus ATCC29213", "value": 2, "unit": "µg/mL"}, {"measurement": "MIC", "setting": "[2]; MRSA, methicillin-resistant S. aureus OC2878, read-out: MIC100 MRSA OC2878", "value": 64, "unit": "µg/mL"}, {"measurement": "MIC", "setting": "[3]; strain ATCC25922, read-out: MIC100 E. coli ATCC25922", "value": 1, "unit": "µg/mL"}, {"measurement": "MIC", "setting": "[3]; strain OC2530, read-out: MIC100 E. coli OC2530", "value": 2, "unit": "µg/mL"}]}
{"smiles": "O=C(O)c1cn(C2CC2)c2cc(N3CCNCC3)c(F)cc2c1=O", "note": "[Ciprofloxacin, ciprofloxacin, reference compound]", "values": [{"measurement": "MIC", "setting": "[4]", "value": 0.0312, "unit": "µg/mL"}, {"measurement": "MIC", "setting": "[5]; Bacillus anthracis, 24 h, read-out: MIC100 B. anthracis (24 hr)", "value": "0.125 to 0.25", "unit": "µg/mL"}, {"measurement": "Time course of growth inhibition of Bacillus anthracis", "setting": "[5]; growth recorded at 2 hour intervals over 24 hours (FIG. 3)", "value": "transient cell growth was observed at early time points"}, {"measurement": "increase in MIC on serial passage", "setting": "[6]", "value": 125, "unit": "fold"}]}
{"smiles": "N=C(N)NCCc1cc(Br)cc(C#Cc2cccc(C#Cc3cc(Br)cc(CCNC(=N)N)c3)c2)c1", "note": "[Compound 2]", "values": [{"measurement": "MIC90", "setting": "[7]; read-out: MIC90 E. Coli", "value": 1.6, "unit": "µg/mL"}, {"measurement": "MIC", "setting": "[7]", "value": 3.2, "unit": "µg/mL"}, {"measurement": "MIC", "setting": "[8]", "value": 1.6, "unit": "µg/mL"}, {"measurement": "MIC90", "setting": "[8]; read-out: MIC90 B. subtilis", "value": 1.6, "unit": "µg/mL"}, {"measurement": "Hemolysis HC50", "setting": "[9]; human erythrocytes", "value": 8, "unit": "µg/mL"}, {"measurement": "HC50", "setting": "[9]; human erythrocytes, Table 2", "value": 8.5, "unit": "µg/mL"}, {"measurement": "Selectivity HC50/MIC E.coli", "setting": "[9]; ratio of HC50 to E. coli MIC", "value": 5.3}]}
{"smiles": "NCCNC(=O)c1cc(Br)cc(C#Cc2cccc(C#Cc3cc(Br)cc(C(=O)NCCN)c3)c2)c1", "note": "[Compound 4]", "values": [{"measurement": "MIC", "setting": "[7]", "value": 50, "unit": "µg/mL"}, {"measurement": "MIC", "setting": "[8]", "value": 25, "unit": "µg/mL"}, {"measurement": "Hemolysis HC50", "setting": "[9]; human erythrocytes", "value": 12.5, "unit": "µg/mL"}]}
{"smiles": "CCCCCOc1c(I)cc(CN)cc1C#Cc1cccc(C#Cc2cc(CN)cc(I)c2OCCCCC)c1", "note": "[Compound 5]", "values": [{"measurement": "MIC", "setting": "[7]", "value": 25, "unit": "µg/mL"}, {"measurement": "MIC", "setting": "[8]", "value": 100, "unit": "µg/mL"}, {"measurement": "Hemolysis HC50", "setting": "[9]; human erythrocytes", "value": "<12.5", "unit": "µg/mL"}]}
{"smiles": "CCCCCOc1c(I)cc(CNC(=N)N)cc1C#Cc1cccc(C#Cc2cc(CNC(=N)N)cc(I)c2OCCCCC)c1", "note": "[Compound 6]", "values": [{"measurement": "MIC", "setting": "[7]", "value": 6.4, "unit": "µg/mL"}, {"measurement": "MIC", "setting": "[8]", "value": 3.2, "unit": "µg/mL"}, {"measurement": "Hemolysis HC50", "setting": "[9]; human erythrocytes", "value": 5, "unit": "µg/mL"}]}
{"smiles": "OC(Cn1cncn1)(Cn1cncn1)c1ccc(F)cc1F", "note": "[Fluconazole, reference compound]", "values": [{"measurement": "MIC Trichoderma virens", "setting": "[10]; RPMI 1640, 35° C.", "value": ">128/>128"}, {"measurement": "MFC Trichoderma virens", "setting": "[10]; [18]", "value": ">128/>128"}, {"measurement": "MIC Penicillium funiculosum", "setting": "[11]; RPMI 1640, 35° C.", "value": 4, "unit": "µg/mL"}, {"measurement": "MFC Penicillium funiculosum", "setting": "[11]; [18]", "value": "> 32", "unit": "µg/mL"}, {"measurement": "MIC Aspergillus fumigatus", "setting": "[12]; RPMI 1640, 35° C.", "value": ">32/>32"}, {"measurement": "MFC Aspergillus fumigatus", "setting": "[12]; [18]", "value": ">32/>32"}, {"measurement": "MIC Chaetomium globosum", "setting": "[13]; RPMI 1640, 35° C.", "value": "0.25/0.25"}, {"measurement": "MFC Chaetomium globosum", "setting": "[13]; [18]", "value": "0.25/0.25"}]}
{"smiles": "C[C@H]1COc2c(N3CCN(C)CC3)c(F)cc3c(=O)c(C(=O)O)cn1c23", "note": "[LEVOFLOX, levofloxacin]", "values": [{"measurement": "mic (MIC100) Haemophilus influenzae", "setting": "[14]", "value": "≦0.03"}, {"measurement": "mic (MIC100) Streptococcus pyogenes", "setting": "[15]", "value": "0.25 and 0.5"}, {"measurement": "mic (MIC100) Candida albicans", "setting": "[1]", "value": ">8"}, {"measurement": "mic (MIC100) Enterococcus faecalis ATCC 29212", "setting": "[16]", "value": 0.5, "unit": "µg/mL"}, {"measurement": "mic (MIC100) Streptococcus pneumoniae", "setting": "[17]", "value": "1 and 0.5"}, {"measurement": "mic (MIC100) Streptococcus pneumoniae ATCC 49619", "setting": "[17]", "value": 0.5, "unit": "µg/mL"}, {"measurement": "mic (MIC100) Streptococcus pneumoniae PEN-R", "setting": "[17]", "value": 0.5}]}
{"smiles": "CC(=O)NC[C@H]1CN(c2ccc(N3CCOCC3)c(F)c2)C(=O)O1", "note": "[LINEZOLID, linezolid]", "values": [{"measurement": "mic (MIC100) Haemophilus influenzae", "setting": "[14]; in µg/mL", "value": ">8 and 8"}, {"measurement": "mic (MIC100) Streptococcus pyogenes", "setting": "[15]", "value": 1}, {"measurement": "mic (MIC100) Candida albicans", "setting": "[1]", "value": ">8"}, {"measurement": "mic (MIC100) Enterococcus faecalis ATCC 29212", "setting": "[16]", "value": 2, "unit": "µg/mL"}, {"measurement": "mic (MIC100) Streptococcus pneumoniae", "setting": "[17]", "value": 1}, {"measurement": "mic (MIC100) Streptococcus pneumoniae ATCC 49619", "setting": "[17]", "value": 1, "unit": "µg/mL"}, {"measurement": "mic (MIC100) Streptococcus pneumoniae PEN-R", "setting": "[17]", "value": "0.5 and 1"}]}
{"smiles": "CN[C@H](CC(C)C)C(=O)N[C@H]1C(=O)N[C@@H](CC(N)=O)C(=O)N[C@H]2C(=O)N[C@H]3C(=O)N[C@H](C(=O)N[C@H](C(=O)O)c4cc(O)cc(O)c4-c4cc3ccc4O)[C@H](O)c3ccc(c(Cl)c3)Oc3cc2cc(c3O[C@@H]2O[C@H](CO)[C@@H](O)[C@H](O)[C@H]2O[C@H]2C[C@](C)(N)[C@H](O)[C@H](C)O2)Oc2ccc(cc2Cl)[C@H]1O", "note": "[VANCO, vancomycin]", "values": [{"measurement": "mic (MIC100) Haemophilus influenzae", "setting": "[14]; in µg/mL", "value": ">32"}, {"measurement": "mic (MIC100) Streptococcus pyogenes", "setting": "[15]", "value": 0.5}, {"measurement": "mic (MIC100) Candida albicans", "setting": "[1]", "value": ">32"}, {"measurement": "mic (MIC100) Enterococcus faecalis ATCC 29212", "setting": "[16]", "value": 4, "unit": "µg/mL"}, {"measurement": "mic (MIC100) Streptococcus pneumoniae", "setting": "[17]", "value": 0.5}, {"measurement": "mic (MIC100) Streptococcus pneumoniae ATCC 49619", "setting": "[17]", "value": 0.5, "unit": "µg/mL"}, {"measurement": "mic (MIC100) Streptococcus pneumoniae PEN-R", "setting": "[17]", "value": "0.5 and 1"}]}
{"smiles": "CCn1cc(C(=O)O)c(=O)c2cc(F)c(N3CCNCC3)cc21", "note": "[norfloxacin]", "values": [{"measurement": "increase in MIC on serial passage", "setting": "[6]", "value": 160, "unit": "fold"}]}
